{"source": "patent EP4818172A1", "about": "“ASCORBIC ACID DERIVATIVES AND COSMETIC CONTAINING SAME” (Seiwa Kasei Co., Ltd., priority 2023, dated 2025)", "key": {"[1]": {"system": "Normal human epidermal keratinocytes", "assay": "Antioxidant effect: ROS production inhibition after H2O2 (DCFHDA probe)", "format": "cell-based", "details": "sample at 10 mM or less, 24 hours, then 0.2 mM H2O2 for 2 hours, N=4", "protocol": "Normal human epidermal keratinocytes were seeded onto a 96-well plate using KG2 medium at a cell density of 2.0 × 10^4 cells/well. After 24 hours of pre-incubation, samples adjusted to a predetermined concentration in KG2 medium were added to each well. After 24 hours of incubation, the medium was removed, followed by washing with HBSS(-) and the incorporation of the ROS-reactive fluorescent probe DCFHDA for 30 minutes. The cells were again washed with HBSS(-), treated with 0.2 mM H2O2, and incubated for 2 hours. The fluorescence intensity was measured, and the amount of ROS produced per unit protein was calculated by dividing the fluorescence intensity by the amount of protein quantified by the BCA method, resulting in an analytical value of 1. Furthermore, the amount of ROS production calculated without adding the sample adjusted to a predetermined concentration using the above test method was set to analytical value 2; and the amount of ROS production calculated without adding the sample or 0.2 mM H2O2 was set to analytical value 3.\nROS production inhibition rate (%) was calculated using the following formula. The higher the ROS production inhibition rate, the greater the antioxidant effect can be evaluated to be.\nROS production inhibition rate (%) = [(analysis value 2) - (analysis value 1)] / [(analysis value 2) - (analysis value 3)] × 100\nThe ROS production inhibition rate when the sample was measured at a concentration of 10 mM or less was evaluated as follows. Note that the measurement was performed in N=4. • <20%: + • 20-40%: ++ • 40%<: +++ [Table 21]"}, "[2]": {"system": "Normal human dermal fibroblasts", "assay": "Collagen production promoting effect (ELISA of free collagen in supernatant)", "format": "cell-based", "details": "sample at 10 mM or less, cultured 48 hours, % of control group (100%), N=3", "protocol": "Normal human dermal fibroblasts were prepared in D-MEM containing 5% (v/v) fetal bovine serum to a cell density of 2.5 × 10^4 cell s /well, and then pre-incubated for 24 hours on a 96-well plate. After removing the medium, samples prepared to a predetermined concentration in D-MEM containing 5% (v/v) fetal bovine serum were added to each well and cultured for 48 hours. After the culture was completed, the amount of free collagen in the supernatant was quantified by ELISA. Measurements were performed in triplicate (N=3).\nThe amount of collagen produced when the sample was measured at a concentration of 10 mM or less was compared with that of the control group, and the results (% values when the control group was set to 100%) are shown in Table 17 based on the following criteria. • <100%: ± • 100-140%: + • 140%<: ++ [Table 17]"}, "[3]": {"system": "Normal human dermal fibroblasts (NHDF)", "assay": "Hyaluronic acid production promoting effect (ELISA of supernatant)", "format": "cell-based", "details": "sample at 10 mM or less in serum-free D-MEM, cultured 48 hours, % of control group (100%), N=3", "procedure,_shortened": "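NHDF pre-incubated 24 h in D-MEM/5% FBS, then exposed to samples (10 mM or less) in serum-free D-MEM for 48 h. Supernatant hyaluronic acid measured by ELISA, triplicate. Output expressed as % of untreated control (control = 100%), graded ±/+/++ at <100%, 100-120%, >120%.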"}, "[4]": {"assay": "Stability test -1: odor and coloration scored by 10 panelists", "format": "physicochemical", "details": "Test Example 1, aqueous solution, total score of 10 panelists", "protocol": "(§1) For each of the samples of Synthesis Examples 1 to 6, 1% aqueous solutions were adjusted to pH 3, 5, 7, 8, and 9 with a dilute potassium hydroxide aqueous solution, and then placed in 50 mL screw tubes and • 2: Color changes compared to immediately after preparation. • 1: Strongly colored compared to immediately after preparation. Based on the results of the above evaluation, the following classification was made: • ○: Total score of 10 panelists is 25 or more • △: Total score of 10 panelists is 16-24 • ×: The total score of 10 panelists is 15 or less [Table 10]"}, "[5]": {"assay": "Stability test -1: residual rate of 1% aqueous solutions at pH 3 to 9 on storage", "format": "physicochemical", "details": "1% aqueous solution"}, "[6]": {"assay": "Stability test -2: odor and coloration of cream stored at 50°C", "format": "physicochemical", "details": "Test Example 2, cream stored at 50°C, total score of 10 panelists", "protocol": "as §1\n(§2) For each of the samples of Synthesis Examples 9 to 32, (a) and (b) shown in Table 12 were each heated and mixed. After cooling, (c) shown in Table 12 was added to prepare a cream with a pH of 7 or 9. The sample was stored at 50°C for 4 weeks, and the residual rate was determined in the same manner as in Test Example 1 and evaluated according to the criteria described below. The odor and coloration were also evaluated according to the same method and criteria as in Test Example 1. The results regarding the residual rate are shown in Tables 13 and 14, and the results regarding the odor and coloration are shown in Tables 15 and 16."}, "[7]": {"assay": "Stability test -2: residual rate in cream of pH 7 or 9 stored at 50°C", "format": "physicochemical", "details": "cream with 4.0 W/W% derivative", "protocol": "as §2\n• ⊚: 95% or more • ○: 85% or more, less than 95% • ×: Less than 85% [Table 12]"}}, "data": [{"molecule": "O=C1O[C@H]([C@@H](O)CO)C(O)=C1OCC(O)CO", "note": "(stereo partly shown) [2-O-glyceryl ascorbic acid, reference compound]", "values": [{"measurement": "Antioxidant effect (ROS production inhibition rate)", "setting": "[1]", "result": "+ (<20%)"}, {"measurement": "Collagen production-promoting effect", "setting": "[2]", "result": "+ (100-140%)"}]}, {"molecule": "O=C1OC2C(O)COC23OCCCCOC13", "note": "(stereo not shown) [synthesis Example 33, 4-hydroxy-2,6,9,14-tetraoxatricyclo [6.6.0.0^1.5] tetradecan-7-one]", "values": [{"measurement": "Antioxidant effect (ROS production inhibition rate)", "setting": "[1]", "result": "++ (20-40%)"}, {"measurement": "Hyaluronic acid production-promoting effect", "setting": "[3]", "result": "+ (100-120%)"}]}, {"molecule": "O=C1OC2C(O)COC23OCCCOC13", "note": "(stereo not shown) [synthesis Example 34, 4-hydroxy-2,6,9,13-tetraoxatricyclo [6.5.0.0^1.5] tridecan-7-one]", "values": [{"measurement": "Antioxidant effect (ROS production inhibition rate)", "setting": "[1]", "result": "++ (20-40%)"}, {"measurement": "Hyaluronic acid production-promoting effect", "setting": "[3]", "result": "+ (100-120%)"}]}, {"molecule": "O=C1OC(C(O)CO)C2=C1OC(CO)CO2", "note": "(stereo not shown) [synthesis example 5, 2,3-O-(1-hydroxymethyl-1,2-ethanediyl) ascorbic acid]", "values": [{"measurement": "Coloration After 2 weeks", "setting": "[4]", "result": "○ (Total score of 10 panelists is 25 or more)"}, {"measurement": "Odor After 2 weeks", "setting": "[4]", "result": "○ (Total score of 10 panelists is 25 or more)"}, {"measurement": "Coloration After 4 weeks", "setting": "[4]", "result": "○ (Total score of 10 panelists is 25 or more)"}, {"measurement": "Odor After 4 weeks", "setting": "[4]", "result": "○ (Total score of 10 panelists is 25 or more)"}, {"measurement": "Hyaluronic acid production-promoting effect", "setting": "[3]", "result": "+ (100-120%)"}, {"measurement": "Collagen production-promoting effect", "setting": "[2]", "result": "+ (100-140%)"}, {"measurement": "Residual Rate After 2 weeks", "setting": "[5]; pH3, stored at 50°C", "result": "⊚"}, {"measurement": "Residual Rate After 4 weeks", "setting": "[5]; pH3, stored at 50°C", "result": "⊚"}, {"measurement": "Residual Rate After 2 weeks", "setting": "[5]; pH5, stored at 50°C", "result": "⊚"}, {"measurement": "Residual Rate After 4 weeks", "setting": "[5]; pH5, stored at 50°C", "result": "⊚"}, {"measurement": "Residual Rate After 2 weeks", "setting": "[5]; pH7, stored at 50°C", "result": "○"}, {"measurement": "Residual Rate After 4 weeks", "setting": "[5]; pH7, stored at 50°C", "result": "Δ"}, {"measurement": "Residual Rate After 2 weeks", "setting": "[5]; pH8, stored at 50°C", "result": "○"}, {"measurement": "Residual Rate After 4 weeks", "setting": "[5]; pH8, stored at 50°C", "result": "Δ"}, {"measurement": "Residual Rate After 2 weeks", "setting": "[5]; pH9, stored at 50°C", "result": "○"}, {"measurement": "Residual Rate After 4 weeks", "setting": "[5]; pH9, stored at 50°C", "result": "Δ"}]}, {"molecule": "O=C1OC(C(O)CO)C2=C1OCC1(COC1)CO2", "note": "(stereo not shown) [synthesis example 6, 2,3-O-(3,3-dimethyleneoxetane) ascorbic acid]", "values": [{"measurement": "Coloration After 2 weeks", "setting": "[4]", "result": "○ (Total score of 10 panelists is 25 or more)"}, {"measurement": "Odor After 2 weeks", "setting": "[4]", "result": "○ (Total score of 10 panelists is 25 or more)"}, {"measurement": "Coloration After 4 weeks", "setting": "[4]", "result": "○ (Total score of 10 panelists is 25 or more)"}, {"measurement": "Odor After 4 weeks", "setting": "[4]", "result": "○ (Total score of 10 panelists is 25 or more)"}, {"measurement": "Hyaluronic acid production-promoting effect", "setting": "[3]", "result": "++ (120%<)"}, {"measurement": "Collagen production-promoting effect", "setting": "[2]", "result": "++ (140%<)"}, {"measurement": "Residual Rate After 2 weeks", "setting": "[5]; pH3, stored at 50°C", "result": "⊚"}, {"measurement": "Residual Rate After 4 weeks", "setting": "[5]; pH3, stored at 50°C", "result": "⊚"}, {"measurement": "Residual Rate After 2 weeks", "setting": "[5]; pH5, stored at 50°C", "result": "⊚"}, {"measurement": "Residual Rate After 4 weeks", "setting": "[5]; pH5, stored at 50°C", "result": "⊚"}, {"measurement": "Residual Rate After 2 weeks", "setting": "[5]; pH7, stored at 50°C", "result": "○"}, {"measurement": "Residual Rate After 4 weeks", "setting": "[5]; pH7, stored at 50°C", "result": "○"}, {"measurement": "Residual Rate After 2 weeks", "setting": "[5]; pH8, stored at 50°C", "result": "○"}, {"measurement": "Residual Rate After 4 weeks", "setting": "[5]; pH8, stored at 50°C", "result": "Δ"}, {"measurement": "Residual Rate After 2 weeks", "setting": "[5]; pH9, stored at 50°C", "result": "○"}, {"measurement": "Residual Rate After 4 weeks", "setting": "[5]; pH9, stored at 50°C", "result": "Δ"}]}, {"molecule": "CCCCCCCCCCCC(=O)OCC(O)C1OC(=O)C2=C1OCCCCO2", "note": "(stereo not shown) [synthesis example 13, 6-O-lauroyl-2,3-O-(1,4-butanediyl) ascorbic acid]", "values": [{"measurement": "Antioxidant effect (ROS production inhibition rate)", "setting": "[1]", "result": "+ (<20%)"}, {"measurement": "Coloration After 2 weeks", "setting": "[6]", "result": "○ (Total score of 10 panelists is 25 or more)"}, {"measurement": "Odor After 2 weeks", "setting": "[6]", "result": "○ (Total score of 10 panelists is 25 or more)"}, {"measurement": "Coloration After 4 weeks", "setting": "[6]", "result": "○ (Total score of 10 panelists is 25 or more)"}, {"measurement": "Odor After 4 weeks", "setting": "[6]", "result": "Δ"}, {"measurement": "Hyaluronic acid production-promoting effect", "setting": "[3]", "result": "++ (120%<)"}, {"measurement": "Residual Rate After 2 weeks", "setting": "[7]; pH7, stored at 50°C", "result": "⊚ (95% or more)"}, {"measurement": "Residual Rate After 4 weeks", "setting": "[7]; pH7, stored at 50°C", "result": "⊚ (95% or more)"}, {"measurement": "Residual Rate After 2 weeks", "setting": "[7]; pH9, stored at 50°C", "result": "⊚ (95% or more)"}, {"measurement": "Residual Rate After 4 weeks", "setting": "[7]; pH9, stored at 50°C", "result": "⊚ (95% or more)"}]}, {"molecule": "CCCCCCCCCCCC(=O)OCC(OC(=O)CCCCCCCCCCC)C1OC(=O)C2=C1OCCCCO2", "note": "(stereo not shown) [synthesis example 14, 5,6-O-dilauroyl-2,3-O-(1,4-butanediyl) ascorbic acid]", "values": [{"measurement": "Antioxidant effect (ROS production inhibition rate)", "setting": "[1]", "result": "+ (<20%)"}, {"measurement": "Coloration After 2 weeks", "setting": "[6]", "result": "○ (Total score of 10 panelists is 25 or more)"}, {"measurement": "Odor After 2 weeks", "setting": "[6]", "result": "○ (Total score of 10 panelists is 25 or more)"}, {"measurement": "Coloration After 4 weeks", "setting": "[6]", "result": "○ (Total score of 10 panelists is 25 or more)"}, {"measurement": "Odor After 4 weeks", "setting": "[6]", "result": "Δ"}, {"measurement": "Hyaluronic acid production-promoting effect", "setting": "[3]", "result": "++ (120%<)"}, {"measurement": "Residual Rate After 2 weeks", "setting": "[7]; pH7, stored at 50°C", "result": "⊚ (95% or more)"}, {"measurement": "Residual Rate After 4 weeks", "setting": "[7]; pH7, stored at 50°C", "result": "⊚ (95% or more)"}, {"measurement": "Residual Rate After 2 weeks", "setting": "[7]; pH9, stored at 50°C", "result": "⊚ (95% or more)"}, {"measurement": "Residual Rate After 4 weeks", "setting": "[7]; pH9, stored at 50°C", "result": "○ (85% or more, less than 95%)"}]}]}
